Source: patent US20260256746A1, “TRIAZOLES FOR USE IN THE TREATMENT OF OCULAR DISEASES” (MIRAMOON PHARMA, S.L., priority 2022, published 2026)

How the values were obtained:
rd10 mice [1] = test: In vivo efficacy in rd10 mouse model of retinitis pigmentosa, electroretinographic (ERG) analysis; settings: for retinal function measured by ERG activity: 3 μL of 20 mM solution per eye daily for 11 days, scotopic conditions, vs untreated rd10
Procedure: rd10 mice were treated by ocular instillation with phosphate buffered saline (PBS) containing the compounds of the invention (1, 35, 50, 56 and 70) for 11 days (from P14 to P24). Animals were dark adapted for 8 hours at P25 and full-field flash electroretinographic (ERG) responses were recorded with the retina illuminated with a LED-driven Ganzfeld dome. A series of light flashes of increasing intensity, from 0.001 to 10 cd s/m^2, were averaged both in scotopic (dark-adapted) and photopic (light adapted) conditions. Photopic cone responses were recorded following 5 min of light adaptation with a background white light (30 cd/m^2). Light intensity was controlled for each animal group (Mavo-Monitor USB, Gossen, Germany). The stimulation protocols were designed according to the International Society for Clinical Electrophysiology of Vision. Briefly, mice were anesthetized with intraperitoneal administration of a saline solution containing ketamine (95 mg/kg) and xylazine (5 mg/kg) and kept on a 37° C. heating pad. Ocular instillation of 1% tropicamide was applied to induce mydriasis. ERG responses were recorded from both eyes in response to a Ganzfeld stimulator under light flashes. A total of 4 to 64 consecutive stimuli were averaged, with an interval between light flashes in scotopic conditions of 10 s for dim flashes and of up to 60 s for the highest intensity for every light intensity used. For photopic conditions, a one-second interval between light flashes was used. ERG signals were amplified, and band filtered between 0.3 and 1000 Hz (CP511 AC amplifier; Grass Instruments, Quincy, MA, USA). Electrical signals were digitized at 20 kHz with a power laboratory data acquisition board (AD Instruments, Chalgrove, UK).
ERGs were performed using an electrode fixed to a corneal lens (Burian-Allen electrode; Hansen Ophthalmic Development Laboratory, Coralville, IA, USA) and a reference electrode fixed to the mouth, with a ground electrode placed in the tail. Rod-mediated responses were recorded from light flashes ranging from 0.001 to 10 cd s/m^2 with dark-adapted mice. Mixed rod- and cone-mediated signals were recorded in response to −1.5 to 1.5 log cd s/m^2 light flashes. Oscillatory potential (OP) was isolated using 11 cd s/m^2 white flashes, with a recording frequency ranging between 100 and 10,000 Hz. For recording of cone-mediated responses, we applied light flashes ranging from 0.5 to 2 log cd s/m^2 on a rod-saturating background of 30 cd s/m^2. Amplitudes of the a-wave and b-wave were averaged, using data provided by a researcher with no information regarding the experimental condition of mice.
Data correspond to a pool of 3 independent experiments (N=3) with 4-5 mice per experimental group. Data are expressed as mean+/−standard deviation. Unpaired t-test was used for statistical analysis.

rd10 mice [2] = test: Optokinetic response based on a modified Morris water maze; assay type: in vivo, mouse; settings: daily ocular instillation for 16 days; spatial frequencies 0.01; 0.02; 0.17 and 0.35 cycles/degree
Procedure: rd10 mice were treated by ocular instillation with phosphate buffered saline (PBS) containing the compound 35 of the invention for 16 days (from P14 to P29). To study optokinetic (OKT) response, we conducted an OKT test in combination with a modified Morris water maze using 9 rd10 mice at p30: 5 treated with compound 35 and 4 untreated. Animals were adapted to the experimental conditions for 1 week before behavioral testing. Mice were trained in a square pool (70×40 cm) filled with water (24-26-C), with all sides opaque, except the frontal side, where a screen was placed. The screen was divided vertically into 2 equal parts. A pattern of moving vertical bars was presented on one half of the screen, with the other half turned off. The direction of the bars was random: 50% of the time moving to the right and 50% of the time moving to the left. The bar velocity was constant throughout the process. Mice were trained for one week to associate the area of the screen with moving bars with the presence of a submerged platform, not visible to the mice under the dim light conditions, that was placed right next to that area of the screen. The platform allowed the mice to escape from the water. […] Contrast sensitivity values were measured, and the results of treated and untreated mice were compared.

rd10 mice [3] = test: Morphometric analysis of the retina (immunohistochemistry, rhodopsin and cone arrestin); assay type: in vivo, mouse; settings: 3 μL of 20 mM solution per eye for 11 days; vs untreated rd10
Procedure: A detailed morphometric analysis, based on immunohistochemistry, was performed. For this purpose, rd10 mice were treated by ocular instillation with phosphate buffered saline (PBS) containing compound 35 (3 μL of 20 mM solution per eye) for 11 days (from P14 to P24). At P25 eyeballs were enucleated and fixed with 4% paraformaldehyde (in PBS) for 3 hours. The anterior segment and lens were dissected, and the eyecups were incubated in 30% sucrose (in PBS) for 12 h at 4° C. Cryosection with DAPI. ocular cryosections were stained with DAPI, rhodopsin and cone arrestin for immunohistochemical analysis. Briefly, cryosections were incubated with antibodies against rhodopsin (Millipore, MABN15) and cone arrestin (Millipore, AB15282) both at 1:400 for 8 h at 4° C. and buffered with secondary antibodies both at 1:400 and DAPI (Sigma, D89542) 1:1000 for 1 hour. The sections were analyzed by fluorescent microscopy.

661W cells = test: Prevention of 9-cis-Retinal and light-induced phototoxicity, impedance recording; assay type: cell-based; settings: Mus musculus, light or radiation study, 20 μM 9-cis-Retinal, 30,000 luxes white light, impedance converted to percentage of cytolysis, read-out: EC50 of protection against phototoxicity
Procedure: 661W cells were seeded onto 96-wells MEA impedance plates (50,000 cells/well) and grown until confluence in the Maestro Edge equipment (Axion Biosystems) at 37° C. and 5% CO2. When impedance reaches a plateau, phototoxicity is induced by addition of 20 μm 9-cis retinal and 30,000 luxes of white light. Increasing concentrations of compound 35 were added (A). Impedance was recorded every minute for 24 hours and was converted to percentage of cytolysis (B). 661 W cells were seeded in a 96-wells impedance plate (50,000 cells/well), previously coated with ECM 1:100, and grown O/N at 37° C. and 5% CO2 in DMEM/F-12 (Thermo Fisher, 11320033) supplemented with 40 μL/L hydrocortisone 21-hemisuccinate (Sigma, H-2270), 40 μL/L progesterone (Sigma, P-8783), 0.032 g/L putrescine (Sigma, P-7505), 40 μL/L β-mercaptoethanol (Sigma, M-6250), antibiotic-antimycotic solution (Sigma, A5955) and 10% fetal bovine serum (FBS). After 8 h, the medium was replaced by DMEM/F-12 without FBS or complements to remove cellular debris. When cells arrived at a plateau in the impedance recording (4-8 hours after the medium change, depending on the culture plate) compound 35 was added and two hours later the 9-cis-Retinal (Cf=20 μM) was added. The cells were placed in the Maestro Z and exposed to 30,000 white light luxes. to register the impedance.

[4] = Retinal biodistribution after topical ocular administration, HPLC-MS of retina (mouse); assay type: in vivo; settings: formulated with 0.2% hyaluronic acid vs PBS solution; 4 h after single ocular instillation
Procedure: Ocular instillation with PBS solutions containing 0.2% hyaluronic acid (HA) and the selected compounds of the invention were administered: 17 μg/eye (3 μL of 20 mM solution per eye) in mouse; 65 μg/eye (10 μL of 17 mM solution per eye) in rat; and 559 μg/eye (50 μL of 40 mM solution per eye) in swine. Animals were sacrificed after 4 hours (mouse, rabbit and swine) or after 24 hours (rats) of treatment to determinate the availability of the compounds in the retina. Retinas were mechanically homogenized in physiological serum ([…]) and processed to analyze the compounds availability by HPLC-MS.

[5] = Retinal biodistribution by in vivo autoradiography after ocular instillation; set-up: species or system Sprague-Dawley rats; settings: 5 μL/eye of 20 mM PBS solution, autoradiography at 1, 8 and 24 h
Procedure: In order to test the bioavailability of the compounds 1, 24, 35, 53, 66 and 67 to the retina, the following species we used: mouse, rat, rabbit and swine. Animals were treated under anesthesia. In vivo autoradiography imaging was conducted at 1, 8 and 24 hours following the ocular instillation of compound [^3H]-35 (5 μL/eye) as a phosphate buffered saline (PBS) 20 mM solution under carrier added conditions (ca. 7 mBq/eye) on Sprague-Dawley rats (n=4 for each time point). After the enucleation, the eye was incubated firstly in an aqueous solution at 4% of paraformaldehyde for 4 hours, then in aqueous solution at 10% and 20% of sucrose for 2 hours each and finally in aqueous solution at 30% of sucrose for one week. All the incubations were at 4° C. The samples were fixed in OCT (optimal cutting temperature polymer) and fine 20-μm sections of eye were cut using a Leyca cryostat (Leica CM3050 S, Germany) at −24° C. The slices (20 μm thick) were disposed on glass slides (Superfrost Plus, Labolan). Autoradiography was performed in Beta Imager 2000 system (Biospace Lab, France), for 1 h on four consecutive slices of the central part of the organ where all the parts are visible (FIG. 1 A).

## COc1ccc(OCc2cn(CCN(C)C)nn2)cc1 [Compound 1, 1-[2-(N,N-dimethylamino)ethyl]-4-[(4-methoxyphenoxy)methyl]-1H-1,2,3-triazole]
rd10 mice [1]
  retinal function measured by ERG activity: increased retinal function

## COc1ccc(SCc2cn(CCN(C)C)nn2)cc1 [Compound 35, 1-[2-(N,N-dimethylamino)ethyl]-4-[(4-methoxyphenyl)thiomethyl]-1H-1,2,3-triazole]
rd10 mice [2]
  contrast sensitivity (visual acuity), treated vs untreated: greatest differences were observed in the outlier values of spatial frequency
rd10 mice [3]
  preservation of photoreceptors (number of rods and cones per square mm, rod outer and inner segment): significant preservation of photoreceptors
rd10 mice [1]; 0.2 cd s/m^2 light intensity
  cone function: recovery score vs. WT: 78%
rd10 mice [1]; 0.2 cd s/m^2 light intensity, vs rd10 control group
  cone function: increase of ERG amplitude: 66%
rd10 mice [1]
  retinal function measured by ERG activity: increased retinal function
661W cells
  EC50: 30.5 nM
[4]
  delivery percentage to the mouse retina (percentage of administered dose per gram of retina): higher delivery percentage

## COc1ccc(SCc2cn(CCCNC(=N)NC(=N)N)nn2)cc1 [Compound 50, 1-[3-(biguanidinyl)propyl]-4-[(4-methoxyphenyl)thiomethyl]-1H-1,2,3-triazole]
rd10 mice [1]
  retinal function measured by ERG activity: increased retinal function

## [3H]c1c(CSc2ccc(OC)cc2)nnn1CCN(C)C [Compound 52, 1-[2-(N,N-dimethylamino)ethyl]-5-trithium-4-[(4-methoxyphenyl)thiomethyl]-1H-1,2,3-triazole]
[5]
  time after administration up to which compound was detected in rat retina: up to 24 h
  time of peak concentration in rat retina: around 8 h

## [O-][S+](Cc1cn(CCN2CCCCC2)nn1)c1cccc(C(F)(F)F)c1 (stereo not shown) [Compound 56, 1-[2-(piperidin-1-yl)ethyl]-4-[(3-trifluoromethylphenyl)sulfinylmethyl]-1H-1,2,3-triazole]
rd10 mice [1]
  retinal function measured by ERG activity: increased retinal function

## CC(C)c1ccc(S(=O)(=O)Cc2cn(CCN3CCOCC3)nn2)cc1 [Compound 70, 4-[(4-isopropylphenyl)sulfonylmethyl]-1-[2-(4-morpholinyl)ethyl]-1H,1,2,3-triazole]
rd10 mice [1]
  retinal function measured by ERG activity: increased retinal function
